Measured values taken from US9028845B2, “Chimeric immunomodulatory compounds and methods of using the same-IV” (Dynavax Technologies Corporation, priority 2001, dated 2015).
“Also recorded” adds a separate entry of the source.

Tested on: human PBMCs
Experiment: Human PBMC cytokine response assay (IFN-γ and IFN-α in cell-free medium by ELISA), with or without cPLGA;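 for IFN-α (pg/ml) mean: 20 µg/mL compound for 24 hours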;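 for IFN-γ (pg/ml) mean: 20 µg/mL compound for 24 hours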
Assay type: cell-based
Details: for immunomodulatory activity (IFN-γ / IFN-α secretion), in words: used alone (no cPLGA); for IFN-a mean / IFN-g mean: mean of donors 28250-28253
[1] = Table 25, donor 28250, polynucleotides/spacers at amounts equivalent to the CIC, spacers alone 9 uM
[2] = mean of donors 28218-28221, 20 μg/ml, 24 h
[3] = donor 28066, 20 ug/ml, 24 h, + PLGA = premixed with 100 μg/ml cPLGA
[4] = donor 28067, 20 ug/ml, 24 h, + PLGA = premixed with 100 μg/ml cPLGA
[5] = donor 28068, 20 ug/ml, 24 h, + PLGA = premixed with 100 μg/ml cPLGA
[6] = mean of donors 28065-28068, 20 ug/ml, 24 h, + PLGA = premixed with 100 μg/ml cPLGA
[7] = mean of donors 28185-28188, Table 15
[8] = Table 24, mean of donors 28234-28237
[9] = mean of donors 110, 112, 119, 120, Table 14

## (5′-TCGTCGA-3′-HEG)2-glycerol-HEG-5′-TCGTCGA-3′ (phosphodiester) [Compound C-93]
Table 9, donor 28089
  IFN-α: 0 pg/mL
  IFN-γ: 0 pg/mL
Table 9, donor 28090
  IFN-α: 30 pg/mL
  IFN-γ: 0 pg/mL
Table 9, donor 28098
  IFN-α: 25 pg/mL
  IFN-γ: 0 pg/mL
Table 9, donor 28099
  IFN-α: 29 pg/mL
  IFN-γ: 3 pg/mL
Table 9, mean of donors
  IFN-α mean: 21 pg/mL
  IFN-γ mean: 1 pg/mL
Table 11, donor 28042
  IFN-α: 7 pg/mL
  IFN-γ: 8 pg/mL
Table 11, donor 28043
  IFN-α: 3 pg/mL
  IFN-γ: 1 pg/mL
Table 11, donor 28044
  IFN-α: 81 pg/mL
  IFN-γ: 41 pg/mL
Table 11, donor 28045
  IFN-α: 61 pg/mL
  IFN-γ: 17 pg/mL
Table 11, mean of donors
  IFN-α mean: 38 pg/mL
  IFN-γ mean: 17 pg/mL
Formulated with cPLGA
  activity when formulated with cPLGA, in words: significantly more active when formulated with cPLGA; also recorded: active only when formulated
  immunomodulatory activity (IFN-γ / IFN-α secretion), in words: inactive as CICs alone

## (5′-TCGACGT-HEG)2-glycerol-HEG-5′-TTGGCCAAGCTTGGCCAA (SEQ ID NO: 116) (DNA, all phosphorothioate, methylation of C not given here; Two heptamer DNA arms joined by HEG spacers and glycerol branching to the chain) [Compound C-178]
Example 59, 0.8 ug/ml, donor 48
  IFN-α: 336 pg/mL
Example 59, 0.8 ug/ml, donor 177
  IFN-α: 1150 pg/mL
Example 59, 0.8 ug/ml, donor 272
  IFN-α: 149 pg/mL
Example 59, 0.8 ug/ml, donor 273
  IFN-α: 102 pg/mL
Example 59, 0.8 ug/ml, mean of four donors
  IFN-α mean: 434 pg/mL
Example 59, 4 ug/ml, donor 48
  IFN-α: 16300 pg/mL
Example 59, 4 ug/ml, donor 177
  IFN-α: 8304 pg/mL
Example 59, 4 ug/ml, donor 272
  IFN-α: 1677 pg/mL
Example 59, 4 ug/ml, donor 273
  IFN-α: 1732 pg/mL
Example 59, 4 ug/ml, mean of four donors
  IFN-α mean: 7003 pg/mL
Example 59, 20 ug/ml, donor 48
  IFN-α: 13946 pg/mL
Example 59, 20 ug/ml, donor 177
  IFN-α: 19973 pg/mL
Example 59, 20 ug/ml, donor 272
  IFN-α: 15050 pg/mL
Example 59, 20 ug/ml, donor 273
  IFN-α: 3971 pg/mL
Example 59, 20 ug/ml, mean of four donors
  IFN-α mean: 13235 pg/mL

## 5′-ACGTTCG-3′-HEG-5′-AGATGAT-3′-HEG-5′-TCGTCGA-3′ [Compound C-58]
Table 13, donor 28156
  IFN-α: 13 pg/mL
  IFN-γ: 404 pg/mL
Table 13, donor 28157
  IFN-α: 30 pg/mL
  IFN-γ: 288 pg/mL
Table 13, donor 28158
  IFN-α: 29 pg/mL
  IFN-γ: 59 pg/mL
Table 13, donor 28159
  IFN-α: 23 pg/mL
  IFN-γ: 84 pg/mL
Table 13, mean of donors
  IFN-α mean: 24 pg/mL
  IFN-γ mean: 209 pg/mL

## 5′-TCGTCG-3′-HEG-5′-ACGTTCG-3′-HEG-5′-AGATGAT-3′-TEG [Compound C-29]
Table 9, donor 28089
  IFN-α: 75 pg/mL
  IFN-γ: 63 pg/mL
Table 9, donor 28090
  IFN-α: 92 pg/mL
  IFN-γ: 50 pg/mL
Table 9, donor 28098
  IFN-α: 359 pg/mL
  IFN-γ: 150 pg/mL
Table 9, donor 28099
  IFN-α: 332 pg/mL
  IFN-γ: 177 pg/mL
Table 9, mean of donors
  IFN-α mean: 214 pg/mL
  IFN-γ mean: 110 pg/mL

## OCC(O)CO [Glycerol]
Table 25, donor 28250
  IFN-a: 16 pg/mL
[1]
  IFN-g: 16 pg/mL
Table 25, donor 28251
  IFN-a: 16 pg/mL
  IFN-g: 12 pg/mL
Table 25, donor 28252
  IFN-a: 16 pg/mL
  IFN-g: 2 pg/mL
Table 25, donor 28253
  IFN-a: 16 pg/mL
  IFN-g: 1 pg/mL
Table 25
  IFN-a mean: 16 pg/mL
  IFN-g mean: 8 pg/mL

## 5′-GsGsGsGs-3′-C3-5′-ATCGAT-3′-C3-5′-TGATGCATCA-3′-C3-5′-ATCGAT-3′-C3-5′-GsGsGsGsGsG-3′ (s = phosphorothioate linkages, otherwise linkages are phosphodiester) (TGATGCATCA is SEQ ID NO: 105) (listed as DNA, chemistry not fully specified) [Compound C-87]
Donor 28218, 20 μg/ml, 24 h
  IFN-a (pg/ml) 28218: 3075 pg/mL
  IFN-g (pg/ml) 28218: 83 pg/mL
Donor 28219, 20 μg/ml, 24 h
  IFN-a (pg/ml) 28219: 32 pg/mL
  IFN-g (pg/ml) 28219: 24 pg/mL
Donor 28220, 20 μg/ml, 24 h
  IFN-a (pg/ml) 28220: 4269 pg/mL
  IFN-g (pg/ml) 28220: 38 pg/mL
Donor 28221, 20 μg/ml, 24 h
  IFN-a (pg/ml) 28221: 265 pg/mL
  IFN-g (pg/ml) 28221: 977 pg/mL
[2]
  IFN-a (pg/ml) mean: 1910 pg/mL
  IFN-g (pg/ml) mean: 281 pg/mL
Used alone
  IFN-α induction, in words: remarkable induction of IFN-α

## 5′-TCGTCGT-3′-HEG-5′-TGTCGTT-3′-HEG-5′-TGTCGTT-3′ [Compound C-47]
Table 10, donor 28042
  IFN-α: 20 pg/mL
  IFN-γ: 112 pg/mL
Table 10, donor 28043
  IFN-α: 0 pg/mL
  IFN-γ: 537 pg/mL
Table 10, donor 28044
  IFN-α: 0 pg/mL
  IFN-γ: 142 pg/mL
Table 10, donor 28045
  IFN-α: 0 pg/mL
  IFN-γ: 17 pg/mL
Table 10, mean of donors
  IFN-α mean: 5 pg/mL
  IFN-γ mean: 202 pg/mL

## (5′-TCGTCGA-3′)2-glycerol-5′-AACGTTC-3′ [Compound C-27]
Donor 28065 (high background), 20 ug/ml, 24 h, + PLGA = premixed with 100 μg/ml cPLGA, 1000 = outside assay limits
  IFN-γ (pg/ml) 28065: 475 pg/mL
Donor 28065, 20 ug/ml, 24 h, + PLGA = premixed with 100 μg/ml cPLGA
  IFN-α (pg/ml) 28065: 3 pg/mL
[3]
  IFN-α (pg/ml) 28066: 0 pg/mL
  IFN-γ (pg/ml) 28066: 3 pg/mL
[4]
  IFN-α (pg/ml) 28067: 24 pg/mL
  IFN-γ (pg/ml) 28067: 24 pg/mL
[5]
  IFN-α (pg/ml) 28068: 16 pg/mL
  IFN-γ (pg/ml) 28068: 226 pg/mL
Donor 28185, Table 15
  IFN-a: 4 pg/mL
  IFN-g: 49 pg/mL
Donor 28186, Table 15
  IFN-a: 4 pg/mL
  IFN-g: 3 pg/mL
Donor 28187, Table 15
  IFN-a: 39 pg/mL
  IFN-g: 21 pg/mL
Donor 28188, Table 15
  IFN-a: 4 pg/mL
  IFN-g: 3 pg/mL
[6]
  IFN-α (pg/ml) mean: 11 pg/mL
  IFN-γ (pg/ml) mean: 182 pg/mL
[7]
  IFN-a (pg/ml) mean: 13 pg/mL
  IFN-g (pg/ml) mean: 19 pg/mL
Mean ×2, Table 15
  IFN-a (pg/ml) ×2: 25 pg/mL
Mean ×4, Table 15
  IFN-g (pg/ml) ×4: 75 pg/mL

## 5′-TCGACGT-3′-HEG-5′-TCGACGT-3′-HEG-5′-TCGACGT-3′ [Compound C-51]
HEG CIC vs C3 CIC
  IFN-α induced relative to C-90 (C3 CIC): 8 fold
Table 10, donor 28042
  IFN-α: 112 pg/mL
  IFN-γ: 795 pg/mL
Table 10, donor 28043
  IFN-α: 245 pg/mL
  IFN-γ: 1349 pg/mL
Table 10, donor 28044
  IFN-α: 240 pg/mL
  IFN-γ: 1114 pg/mL
Table 10, donor 28045
  IFN-α: 36 pg/mL
  IFN-γ: 411 pg/mL
Table 10, mean of donors
  IFN-α mean: 158 pg/mL
  IFN-γ mean: 917 pg/mL
Table 24, donor 28234
  IFN-α: 16 pg/mL
  IFN-γ: 17 pg/mL
Table 24, donor 28235
  IFN-α: 77 pg/mL
  IFN-γ: 123 pg/mL
Table 24, donor 28236
  IFN-α: 352 pg/mL
  IFN-γ: 193 pg/mL
Table 24, donor 28237
  IFN-α: 3798 pg/mL
  IFN-γ: 1580 pg/mL
[8]
  IFN-α mean: 1061 pg/mL
  IFN-γ mean: 478 pg/mL
Table 25, donor 28250
  IFN-a: 181 pg/mL
[1]
  IFN-g: 135 pg/mL
Table 25, donor 28251
  IFN-a: 246 pg/mL
  IFN-g: 45 pg/mL
Table 25, donor 28252
  IFN-a: 95 pg/mL
  IFN-g: 164 pg/mL
Table 25, donor 28253
  IFN-a: 1226 pg/mL
  IFN-g: 167 pg/mL
Table 25
  IFN-a mean: 437 pg/mL
  IFN-g mean: 128 pg/mL
Donor 110, Table 14
  IFN-α: 1408 pg/mL
  IFN-γ: 1528 pg/mL
Donor 112, Table 14
  IFN-α: 72 pg/mL
  IFN-γ: 240 pg/mL
Donor 119, Table 14
  IFN-α: 2200 pg/mL
  IFN-γ: 52 pg/mL
Donor 120, Table 14
  IFN-α: 622 pg/mL
  IFN-γ: 40 pg/mL
[9]
  IFN-α (pg/ml) mean: 1076 pg/mL
  IFN-γ (pg/ml) mean: 465 pg/mL
Used alone
  IFN-α induction, in words: generated more IFN-α than CICs containing a 5′-TCGT-3′
  IFN-γ induction, in words: similar
  immunomodulatory activity (IFN-γ / IFN-α secretion), in words: more active than other CG-containing CICs

## 5′-AGATGAT-3′-HEG-5′-TCGTCGA-3′-HEG-5′-ACGTTCG-3′ [Compound C-59]
Donor 110, Table 14
  IFN-α: 2 pg/mL
  IFN-γ: 256 pg/mL
Donor 112, Table 14
  IFN-α: 6 pg/mL
  IFN-γ: 52 pg/mL
Donor 119, Table 14
  IFN-α: 2 pg/mL
  IFN-γ: 28 pg/mL
Donor 120, Table 14
  IFN-α: 2 pg/mL
  IFN-γ: 40 pg/mL
[9]
  IFN-α (pg/ml) mean: 3 pg/mL
  IFN-γ (pg/ml) mean: 94 pg/mL

## OCCOCCOCCO [Triethylene glycol]
Table 25, donor 28250
  IFN-a: 16 pg/mL
[1]
  IFN-g: 15 pg/mL
Table 25, donor 28251
  IFN-a: 16 pg/mL
  IFN-g: 1 pg/mL
Table 25, donor 28252
  IFN-a: 16 pg/mL
  IFN-g: 7 pg/mL
Table 25, donor 28253
  IFN-a: 16 pg/mL
  IFN-g: 1 pg/mL
Table 25
  IFN-a mean: 16 pg/mL
  IFN-g mean: 6 pg/mL
